Laboratory results taken from PMC1972348, “Pharmacokinetics and cytotoxicity of RSU-1069 in subcutaneous 9L tumours under oxic and hypoxic conditions” (British Journal of Cancer, 1991).
Like-named read-outs stand apart in the source and are kept apart here.

Legend:
[1] = tested on: sc 9L tumour cells; design: method as in Wong et al., 1989; 1990; conditions: Table I, clamped sc 9L tumours, ref Wong et al., 1989; 1990; cited from earlier work
[2] = design: method as in Wong et al., 1989; 1990; conditions: sc 9L tumours, ref Wong et al., 1989; 1990; cited from earlier work
[3] = tested on: other in vitro cells; design: method as in Stratford et al., 1986; conditions: ref Stratford et al., 1986; cited from earlier work
[4] = tested on: hypoxic cells; design: method as in Adams et al., 1984a; conditions: estimated at plasma level of 2-4 µg ml-1, ref Adams et al., 1984a; cited from earlier work
[5] = ref Horwich et al., 1986, cited from earlier work
[6] = tested on: sc 9L tumour cells; design: AUC30: unit not given beside the values
Description: (§1) Br 1 acr(91,6,4448?McilnPesLd,19 Pharmacokinetics and cytotoxicity of RSU-1069 in subcutaneous 9L tumours under oxic and hypoxic conditions K-H. Wong',*, C.J. Koch2, C. A. Wallen' & K.T. Wheeler' 'Experimental Radiation Oncology, Department of Radiology, Bowman Gray School of Medicine, Winston-Salem, North Carolina 27103; and 2Department of Radiation Oncology, University of Pennsylvania, Philadelphia, Pennsylvania 19104, USA. Summary The acute toxicity, pharmacokinetics and hypoxic cytotoxicity of RSU-1069 were investigated using the subcutaneous (sc) rat 9L tumour model. The pharmacokinetics were studied after i.p. injection of RSU-1069 (20mgkg-' or 100mgkg-'). […] The 2-nitroimidazoles, originally designed as electron affinic radiosensitisers, have been reported to selectively kill hypoxic cells (Adams et al., 1980). This hypoxic cytotoxicity appears to be related to the anaerobic bioreductive metabolism of the drugs that releases reactive cytotoxic metabolites (Clark et al., 1980; Brown, 1982). By adding an alkylating group to the side chain of a 2-nitroimidazole, Adams et al. (1984a,b) postulated that a more efficient chemopotentiator and killer of hypoxic cells could be made without the compound losing its ability to sensitise hypoxic cells to ionising radiation. RSU-1069 was one of the compounds synthesised to achieve this goal. RSU-1069 has an aziridine group attached via a side chain to a 2-nitroimidazole. […] Although the ability to kill cells in vivo has been studied (Adams et al., 1984a,b; Chaplin et al., 1986; Olive et al., 1987; Cole et al., 1989; Siemann, 1989) the presence of both oxic and hypoxic cells in these tumours has made it difficult to determine if the relative efficiency of RSU-1069 for killing oxic and hypoxic cells in vivo is similar to that reported in vitro. In this report, we used the subcutaneous (sc) 9L tumour model to study the relative ability of RSU-1069 to kill oxic and hypoxic tumours cells in vivo.

[7] = Description: as §1
[8] = KHT fibrosarcoma, ref Walton & Workman, 1988; cited from earlier work
[9] = tested on: KHT and RIF tumours; design: method as in Bremner et al. (1990); conditions: tumours clamped 60 min after 80 mg kg-1, ref Bremner et al. (1990); cited from earlier work
[10] = tested on: 9L cells; assay: In vitro colony formation of 9L cells treated at defined oxygen concentrations; type: cell-based, rat
Description: Br 1 acr(91,6,4448?McilnPesLd,19 Pharmacokinetics and cytotoxicity of RSU-1069 in subcutaneous 9L tumours under oxic and hypoxic conditions K-H. Wong',*, C.J. Koch2, C. A. Wallen' & K.T. Wheeler' 'Experimental Radiation Oncology, Department of Radiology, Bowman Gray School of Medicine, Winston-Salem, North Carolina 27103; and 2Department of Radiation Oncology, University of Pennsylvania, Philadelphia, Pennsylvania 19104, USA. Summary The acute toxicity, pharmacokinetics and hypoxic cytotoxicity of RSU-1069 were investigated using the subcutaneous (sc) rat 9L tumour model. The pharmacokinetics were studied after i.p. injection of RSU-1069 (20mgkg-' or 100mgkg-'). […] The 2-nitroimidazoles, originally designed as electron affinic radiosensitisers, have been reported to selectively kill hypoxic cells (Adams et al., 1980). This hypoxic cytotoxicity appears to be related to the anaerobic bioreductive metabolism of the drugs that releases reactive cytotoxic metabolites (Clark et al., 1980; Brown, 1982). By adding an alkylating group to the side chain of a 2-nitroimidazole, Adams et al. (1984a,b) postulated that a more efficient chemopotentiator and killer of hypoxic cells could be made without the compound losing its ability to sensitise hypoxic cells to ionising radiation. RSU-1069 was one of the compounds synthesised to achieve this goal. […]

[11] = mice, i.p. doses of 50 and 100 mg kg-1, ref Walton & Workman (1988); cited from earlier work
[12] = B16 and HX 118 melanomas, ref Deacon et al., 1986; Walling et al., 1989; cited from earlier work
[13] = 20 mg kg-1 i.p., unclamped tumours
[14] = 100 mg kg-1 i.p., unclamped tumours
[15] = both doses (20 and 100 mg kg-1)

## COCC(O)Cn1ccnc1[N+](=O)[O-] (stereo not shown) [MISO, misonidazole]
[1]
  AUC30: 877 µg·h/mL
[2]
  time to return to unclamped tumour level after release of the clamp: about 45 min

## O=[N+]([O-])c1nccn1CC(O)CN1CC1 (stereo not shown) [RSU-1069]
[3]
  SER in vitro: ≤ 100
[4]
  radiosensitising enhancement ratio: 1.2
[5]; clinical trial, after a 70 mg kg-1 dose (so in the source)
  peak plasma level: 2 to 4 µg/mL
[5]; phase I clinical trial
  dose limited by nongenotoxic side-effects such as emesis: less than 70 mg m-2
[6]; 20 mg kg-1, clamped tumours
  cell survival: approximately 25%
[6]; 20 mg kg-1, unclamped tumours
  cell survival: ~100%
[6]; 50 mg kg-1, clamped for various times
  cell-kill kinetics as a function of clamping time: little additional cell kill was achieved after 40 min of clamping
[6]; 50 mg kg-1, hypoxic (clamped 2 h)
  surviving fraction: ~0.001
[6]; 50 mg kg-1, oxic (unclamped)
  surviving fraction: about 0.6
[6]; rat, in vivo
  AUC30: 0.15
[6]; rat, in vivo, sc
  efficiency for killing hypoxic sc 9L tumour cells in situ relative to misonidazole or SR2508: 300-1000 fold
  sensitiser enhancement ratio (SER), hypoxic vs oxic sc 9L cells in vivo: 4.8
[7]; 20 mg kg-1, in 60 min
  maximum tumour/plasma ratio: six
[7]; 20 mg kg-1 i.p.
  plasma elimination t1/2: 47.8 ± 6.3 min
  time to peak plasma concentration: about 10 min
  time to peak tumour concentration: 10 min
[7]; 20 mg kg-1 i.p., rat
  peak plasma concentration: 3 micrograms ml-1
[7]; [13]
  peak tumour concentration: 4 micrograms g-1
  tumour elimination t1/2: 41.9 ± 6.1 min
[7]; 100 mg kg-1
  time to return to unclamped tumour concentration after release of the clamp: about 60 min
[7]; 100 mg kg-1, about 90 min after clamping
  tumour/plasma ratio in clamped tumours: 0.1
[7]; 100 mg kg-1, beyond 120 min after clamping
  drug concentration in clamped tumours: undetectable
[7]; 100 mg kg-1, unclamped, in about 45 min
  peak tumour/plasma ratio: exceeded four
[7]; 100 mg kg-1 i.p.
  time to peak plasma concentration: approximately 25 min
[7]; 100 mg kg-1 i.p., rat
  peak plasma concentration: 40 micrograms ml-1
[7]; 100 mg kg-1 i.p., tumour clamped 30 min after administration
  tumour elimination t1/2: 10.9 ± 1.4 min
[7]; 100 mg kg-1 i.p., tumour unclamped
  plasma elimination t1/2: 39.3 ± 11.1 min
[7]; [14]
  peak tumour concentration: 50 micrograms g-1
  time to peak tumour concentration: 30 min
  tumour elimination t1/2: 36.1 ± 9.6 min
[7]; [15]
  constant unclamped tumour/plasma ratio after the maximum: about 2
  maximum unclamped tumour/plasma ratio: 4-6
[7]; rat, in vivo
  elimination from clamped sc 9L tumours faster than MISO or SR-2508: four
  peak plasma concentration at 100 mg kg-1 relative to 20 mg kg-1: about 13 times
  peak tumour concentration at 100 mg kg-1 relative to 20 mg kg-1: about 13 times
[8]
  tumour/plasma ratio: 0.2-0.4
[9]
  increase in time for tumours to reach four times their treatment size: 3-4 fold
[10]; 2.1% O2 vs less than 7.5 x 10(-3)% O2
  SER in vitro: approximately 50
[10]; 21% O2 vs less than 7.5 x 10(-3)% O2
  SER in vitro: approximately 100
[11]
  difference in the volume of distribution: 2 fold
  increase in the elimination t1/2: 37%
[12]
  tumour/plasma ratio: 3.7-4

## O=C(Cn1ccnc1[N+](=O)[O-])NCCO [SR-2508]
[1]
  AUC30: 748 µg·h/mL
[2]
  time to return to unclamped tumour level after release of the clamp: about 90 min
